Source: article PMC8799717, “Pharmacological targeting PIKfyve and tubulin as an effective treatment strategy for double-hit lymphoma” (Cell Death Discovery, 2022)

Assays:
Assay in all cases: biochemical
Set-up in all cases: KINOMEscan active-site-directed competition binding panel, 468 kinases, percent of DMSO control at 1 uM
Conditions in all cases: KINOMEscan binding, percent of DMSO control; read-out: Ctrl%
AAK1 = AAK1 (Homo sapiens, UniProt Q2M2I8)
[1] = molecular target: T1, ABL1(H396P)-nonphosphorylated (Homo sapiens, UniProt P00519, H396P)
T1 construct: nonphosphorylated

AKT1 = AKT1 (Homo sapiens, UniProt P31749)
CAMK1B = molecular target: T2, CAMK1B (Homo sapiens, UniProt Q6P2M8)
T2 construct: gene PNCK

CDC2L1 = molecular target: T3, CDC2L1 (Homo sapiens, UniProt P21127)
T3 construct: gene CDK11B

CDK11 = molecular target: T4, CDK11 (Homo sapiens, UniProt Q9BWU1)
T4 construct: gene CDK19

EGFR(L747-T751del,Sins) = EGFR(L747-T751del,Sins) (Homo sapiens, UniProt P00533, DEL747-750/T751S)
EGFR(S752-I759del) = EGFR(S752-I759del) (Homo sapiens, UniProt P00533, DEL752-759)
EPHA2 = EPHA2 (Homo sapiens, UniProt P29317)
IKK-beta = molecular target: T5, IKK-beta (Homo sapiens, UniProt O14920)
T5 construct: gene IKBKB

KIT(V559D,V654A) = KIT(V559D,V654A) (Homo sapiens, UniProt P10721, V559D/V654A)
MAP4K4 = MAP4K4 (Homo sapiens, UniProt O95819)
MEK6 = molecular target: T6, MEK6 (Homo sapiens, UniProt P52564)
T6 construct: gene MAP2K6

MKNK1 = MKNK1 (Homo sapiens, UniProt Q9BUB5)
MKNK2 = MKNK2 (Homo sapiens, UniProt Q9HBH9)
MST1 = molecular target: T7, MST1 (Homo sapiens, UniProt Q13043)
T7 construct: gene STK4

PIM3 = PIM3 (Homo sapiens, UniProt Q86V86)
PKN1 = PKN1 (Homo sapiens, UniProt Q16512)
QSK = molecular target: T8, QSK (Homo sapiens, UniProt Q9Y2K2)
T8 construct: gene SIK3

SGK = molecular target: T9, SGK (Homo sapiens, UniProt O00141)
T9 construct: gene SGK1

WNK4 = WNK4 (Homo sapiens, UniProt Q96J92)
YANK1 = molecular target: T10, YANK1 (Homo sapiens, UniProt Q8WU08)
T10 construct: gene STK32A

p38-gamma = molecular target: T11, p38-gamma (Homo sapiens, UniProt P53778)
T11 construct: gene MAPK12
T11 sequence (P53778 whole entry): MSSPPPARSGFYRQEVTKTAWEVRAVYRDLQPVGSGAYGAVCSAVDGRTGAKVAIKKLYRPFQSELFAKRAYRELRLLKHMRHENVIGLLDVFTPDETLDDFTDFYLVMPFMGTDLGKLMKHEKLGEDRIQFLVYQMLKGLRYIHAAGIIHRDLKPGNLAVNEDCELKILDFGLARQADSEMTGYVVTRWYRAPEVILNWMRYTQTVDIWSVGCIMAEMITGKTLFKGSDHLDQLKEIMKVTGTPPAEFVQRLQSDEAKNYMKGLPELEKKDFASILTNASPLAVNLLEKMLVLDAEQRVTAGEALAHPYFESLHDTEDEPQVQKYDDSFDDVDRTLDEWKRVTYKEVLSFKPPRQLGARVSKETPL

EPHA2, sequence (P29317 whole entry): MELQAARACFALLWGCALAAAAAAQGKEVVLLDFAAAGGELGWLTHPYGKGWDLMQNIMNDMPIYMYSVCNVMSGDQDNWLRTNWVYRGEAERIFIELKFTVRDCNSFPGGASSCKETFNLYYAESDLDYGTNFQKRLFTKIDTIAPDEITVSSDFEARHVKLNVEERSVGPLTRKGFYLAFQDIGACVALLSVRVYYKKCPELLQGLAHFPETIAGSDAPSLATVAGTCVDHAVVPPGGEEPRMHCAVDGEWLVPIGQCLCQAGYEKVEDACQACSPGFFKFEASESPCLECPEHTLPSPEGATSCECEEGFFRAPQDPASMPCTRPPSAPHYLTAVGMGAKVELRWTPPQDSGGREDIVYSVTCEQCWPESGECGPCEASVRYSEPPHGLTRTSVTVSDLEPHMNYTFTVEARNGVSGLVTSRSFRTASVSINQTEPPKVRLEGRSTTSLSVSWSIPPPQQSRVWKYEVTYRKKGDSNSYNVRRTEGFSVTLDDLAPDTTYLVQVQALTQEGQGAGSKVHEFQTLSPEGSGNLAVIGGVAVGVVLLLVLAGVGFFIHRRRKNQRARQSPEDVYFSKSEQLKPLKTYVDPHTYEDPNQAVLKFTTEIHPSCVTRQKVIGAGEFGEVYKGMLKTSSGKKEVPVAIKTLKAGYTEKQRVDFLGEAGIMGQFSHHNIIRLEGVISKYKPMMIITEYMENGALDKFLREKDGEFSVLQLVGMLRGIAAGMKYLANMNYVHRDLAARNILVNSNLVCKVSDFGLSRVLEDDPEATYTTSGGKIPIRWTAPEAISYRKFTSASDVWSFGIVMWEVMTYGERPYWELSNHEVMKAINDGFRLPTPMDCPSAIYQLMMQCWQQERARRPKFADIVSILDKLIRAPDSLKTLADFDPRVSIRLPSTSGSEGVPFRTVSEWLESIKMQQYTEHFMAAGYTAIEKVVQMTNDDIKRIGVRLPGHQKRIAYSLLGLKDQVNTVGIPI
T10 sequence (Q8WU08 whole entry): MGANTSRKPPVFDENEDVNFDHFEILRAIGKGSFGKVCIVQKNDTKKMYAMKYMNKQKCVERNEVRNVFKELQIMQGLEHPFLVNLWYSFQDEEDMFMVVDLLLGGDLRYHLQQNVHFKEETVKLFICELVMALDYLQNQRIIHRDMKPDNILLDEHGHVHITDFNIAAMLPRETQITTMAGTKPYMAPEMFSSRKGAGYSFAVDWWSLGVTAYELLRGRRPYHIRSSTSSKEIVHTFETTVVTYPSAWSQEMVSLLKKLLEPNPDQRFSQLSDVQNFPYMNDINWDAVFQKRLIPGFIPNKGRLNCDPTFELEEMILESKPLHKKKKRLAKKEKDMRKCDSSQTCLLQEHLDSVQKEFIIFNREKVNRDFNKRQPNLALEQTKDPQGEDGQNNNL
AAK1, sequence (Q2M2I8 whole entry): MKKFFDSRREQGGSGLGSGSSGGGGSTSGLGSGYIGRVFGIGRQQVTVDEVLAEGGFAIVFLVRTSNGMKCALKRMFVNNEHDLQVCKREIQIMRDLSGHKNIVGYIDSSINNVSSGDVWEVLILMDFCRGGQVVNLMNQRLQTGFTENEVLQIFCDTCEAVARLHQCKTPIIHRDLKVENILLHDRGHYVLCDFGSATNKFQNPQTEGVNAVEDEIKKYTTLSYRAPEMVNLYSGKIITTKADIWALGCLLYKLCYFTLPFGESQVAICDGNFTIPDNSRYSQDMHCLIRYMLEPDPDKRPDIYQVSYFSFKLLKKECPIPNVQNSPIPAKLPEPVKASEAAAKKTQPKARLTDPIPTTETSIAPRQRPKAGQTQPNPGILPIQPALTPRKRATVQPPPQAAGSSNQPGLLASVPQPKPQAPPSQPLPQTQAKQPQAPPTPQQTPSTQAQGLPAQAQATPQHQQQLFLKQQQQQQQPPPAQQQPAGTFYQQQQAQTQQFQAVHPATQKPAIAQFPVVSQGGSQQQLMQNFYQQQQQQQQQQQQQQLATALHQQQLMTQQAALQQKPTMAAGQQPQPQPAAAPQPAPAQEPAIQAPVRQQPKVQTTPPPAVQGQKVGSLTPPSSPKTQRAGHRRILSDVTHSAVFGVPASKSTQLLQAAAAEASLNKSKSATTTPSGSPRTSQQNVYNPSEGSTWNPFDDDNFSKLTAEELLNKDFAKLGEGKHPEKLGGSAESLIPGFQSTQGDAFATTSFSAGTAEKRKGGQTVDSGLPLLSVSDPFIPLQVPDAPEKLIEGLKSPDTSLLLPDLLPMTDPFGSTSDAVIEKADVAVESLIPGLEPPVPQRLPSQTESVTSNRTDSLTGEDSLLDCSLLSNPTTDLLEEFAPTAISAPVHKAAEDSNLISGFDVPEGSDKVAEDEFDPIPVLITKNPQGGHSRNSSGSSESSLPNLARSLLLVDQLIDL
T6 sequence (P52564 whole entry): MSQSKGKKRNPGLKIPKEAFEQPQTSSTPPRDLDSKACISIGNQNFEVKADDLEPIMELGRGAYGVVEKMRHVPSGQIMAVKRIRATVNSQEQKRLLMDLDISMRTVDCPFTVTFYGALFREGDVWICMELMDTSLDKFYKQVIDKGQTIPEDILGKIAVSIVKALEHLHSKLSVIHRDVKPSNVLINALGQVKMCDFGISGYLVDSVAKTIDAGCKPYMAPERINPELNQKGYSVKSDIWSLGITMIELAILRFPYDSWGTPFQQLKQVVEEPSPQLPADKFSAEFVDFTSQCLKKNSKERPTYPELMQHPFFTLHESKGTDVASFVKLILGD
AKT1, sequence (P31749 whole entry): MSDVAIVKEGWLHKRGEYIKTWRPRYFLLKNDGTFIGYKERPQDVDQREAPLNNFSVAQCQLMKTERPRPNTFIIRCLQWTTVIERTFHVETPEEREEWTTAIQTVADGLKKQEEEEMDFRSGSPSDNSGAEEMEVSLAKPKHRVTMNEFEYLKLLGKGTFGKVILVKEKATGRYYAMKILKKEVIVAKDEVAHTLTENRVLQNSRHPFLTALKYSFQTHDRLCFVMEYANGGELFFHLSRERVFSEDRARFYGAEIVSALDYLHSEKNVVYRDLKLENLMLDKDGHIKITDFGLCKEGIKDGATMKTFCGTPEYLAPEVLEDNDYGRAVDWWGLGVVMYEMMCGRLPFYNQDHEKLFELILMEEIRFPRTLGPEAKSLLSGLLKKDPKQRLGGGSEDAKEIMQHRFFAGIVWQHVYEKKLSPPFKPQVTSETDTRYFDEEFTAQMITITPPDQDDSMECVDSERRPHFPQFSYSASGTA
T4 sequence (Q9BWU1 whole entry): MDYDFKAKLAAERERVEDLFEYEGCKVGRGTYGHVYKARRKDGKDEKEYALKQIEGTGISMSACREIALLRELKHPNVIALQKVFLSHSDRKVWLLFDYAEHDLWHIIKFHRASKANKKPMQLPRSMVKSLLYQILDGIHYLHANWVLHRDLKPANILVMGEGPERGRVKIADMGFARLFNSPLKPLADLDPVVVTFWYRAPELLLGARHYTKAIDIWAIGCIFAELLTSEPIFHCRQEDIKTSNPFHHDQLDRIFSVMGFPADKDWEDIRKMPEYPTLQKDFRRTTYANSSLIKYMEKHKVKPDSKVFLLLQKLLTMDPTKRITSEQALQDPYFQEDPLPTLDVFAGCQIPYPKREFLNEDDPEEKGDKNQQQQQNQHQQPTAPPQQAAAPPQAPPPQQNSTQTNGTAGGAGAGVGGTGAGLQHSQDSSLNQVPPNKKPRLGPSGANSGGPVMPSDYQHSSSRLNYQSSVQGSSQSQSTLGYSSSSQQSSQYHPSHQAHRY
T7 sequence (Q13043 whole entry): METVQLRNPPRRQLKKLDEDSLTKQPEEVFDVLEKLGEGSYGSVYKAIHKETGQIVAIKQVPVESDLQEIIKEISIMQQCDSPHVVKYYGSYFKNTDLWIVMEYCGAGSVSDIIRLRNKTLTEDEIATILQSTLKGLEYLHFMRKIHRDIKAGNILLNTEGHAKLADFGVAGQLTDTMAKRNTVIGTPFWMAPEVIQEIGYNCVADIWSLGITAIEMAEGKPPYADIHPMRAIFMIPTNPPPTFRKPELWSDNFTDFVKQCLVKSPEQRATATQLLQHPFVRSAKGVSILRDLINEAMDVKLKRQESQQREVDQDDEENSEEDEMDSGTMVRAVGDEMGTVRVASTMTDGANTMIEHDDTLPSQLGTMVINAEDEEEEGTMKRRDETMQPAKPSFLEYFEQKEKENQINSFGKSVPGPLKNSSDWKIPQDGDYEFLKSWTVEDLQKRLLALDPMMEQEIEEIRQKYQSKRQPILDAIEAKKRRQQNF
T2 sequence (Q6P2M8 whole entry): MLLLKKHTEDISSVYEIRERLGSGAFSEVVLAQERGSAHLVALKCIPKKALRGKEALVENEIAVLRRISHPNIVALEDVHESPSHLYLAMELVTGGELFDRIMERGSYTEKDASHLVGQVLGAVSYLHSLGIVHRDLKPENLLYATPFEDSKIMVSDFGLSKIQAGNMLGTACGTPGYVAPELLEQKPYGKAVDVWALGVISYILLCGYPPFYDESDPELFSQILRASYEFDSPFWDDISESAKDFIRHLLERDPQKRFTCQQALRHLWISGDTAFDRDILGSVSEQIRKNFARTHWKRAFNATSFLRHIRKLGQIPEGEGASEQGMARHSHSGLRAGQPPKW

Q: With Cc1ccc(NC(=O)c2cccc(C(F)(F)F)c2)cc1Nc1cc(-c2cccnc2)nc2[nH]ccc12 [HZX-02-059] as the compound, how does the remaining binding at 1 µM (AAK1) read?
A: The remaining binding at 1 µM was 87%.

Q: And the remaining binding at 1 µM [1]?
A: The remaining binding at 1 µM was 55%.

Q: What about the remaining binding at 1 µM (AKT1) of the same compound?
A: The remaining binding at 1 µM was 99%.

Q: What about the remaining binding at 1 µM (CAMK1B) of the same compound?
A: The remaining binding at 1 µM was 98%.

Q: What about the remaining binding at 1 µM (CDC2L1) of the same compound?
A: Its remaining binding at 1 µM is 75%.

Q: What about the remaining binding at 1 µM (CDK11) of the same compound?
A: The remaining binding at 1 µM was 79%.

Q: And the remaining binding at 1 µM (EGFR(L747-T751del,Sins))?
A: The remaining binding at 1 µM was 77%.

Q: What about the remaining binding at 1 µM (EGFR(S752-I759del)) of the same compound?
A: The remaining binding at 1 µM was 100%.

Q: And the remaining binding at 1 µM (EPHA2)?
A: Its remaining binding at 1 µM is 4%.

Q: What about the remaining binding at 1 µM (IKK-beta) of the same compound?
A: The remaining binding at 1 µM was 100%.

Q: And the remaining binding at 1 µM (KIT(V559D,V654A))?
A: The remaining binding at 1 µM was 61%.

Q: And the remaining binding at 1 µM (MAP4K4)?
A: Its remaining binding at 1 µM is 89%.

Q: What about the remaining binding at 1 µM (MEK6) of the same compound?
A: Its remaining binding at 1 µM is 88%.

Q: What about the remaining binding at 1 µM (MKNK1) of the same compound?
A: The remaining binding at 1 µM was 100%.

Q: And the remaining binding at 1 µM (MKNK2)?
A: The remaining binding at 1 µM was 80%.

Q: What about the remaining binding at 1 µM (MST1) of the same compound?
A: Its remaining binding at 1 µM is 74%.

Q: And the remaining binding at 1 µM (PIM3)?
A: Its remaining binding at 1 µM is 89%.

Q: What about the remaining binding at 1 µM (PKN1) of the same compound?
A: Its remaining binding at 1 µM is 93%.

Q: What about the remaining binding at 1 µM (QSK) of the same compound?
A: Its remaining binding at 1 µM is 66%.

Q: And the remaining binding at 1 µM (SGK)?
A: The remaining binding at 1 µM was 100%.

Q: What about the remaining binding at 1 µM (WNK4) of the same compound?
A: The remaining binding at 1 µM was 100%.

Q: And the remaining binding at 1 µM (YANK1)?
A: The remaining binding at 1 µM was 92%.

Q: What about the remaining binding at 1 µM (p38-gamma) of the same compound?
A: Its remaining binding at 1 µM is 92%.
